Key:
[1] = test system: patients with essential tremor; assay: T-CALM: TETRAS activities of daily living subscale (TETRAS-ADL); type: in vivo, human; details: for TETRAS-ADL score (change from baseline), Mean (SD) / TETRAS-ADL score (change from baseline), Median / TETRAS-ADL score (change from baseline), Median (minimum, maximum): post-hoc
Excerpt: The sum of the individual scores provides the overall score, ranging from 0 to 48. The complete TETRAS ADL Subscale is as follows.
Rate tremor's impact on activities of daily living (0-4 scoring).
• 0=Normal. • 1=Slight voice tremulousness, only when “nervous”. • 2=Mild voice tremor. All words easily understood. • 3=Moderate voice tremor. Some words difficult to understand. • 4=Severe voice tremor. Most words difficult to understand. 2. Feeding with a Spoon • 0=Normal. • 1=Slightly abnormal. […] Spills a little. • 3=Moderately abnormal. Spills a lot or changes strategy to complete task such as using two hands or leaning over. • 4=Severely abnormal. Cannot feed with a spoon. 3. Drinking from a Glass • 0=Normal. • 1=Slightly abnormal. […] Spills a little. • 3=Moderately abnormal. Spills a lot or changes strategy to complete task such as using two, hands or leaning over. • 4=Severely abnormal. Cannot drink from a glass or uses straw or sippy cup. 4. Hygiene • 0=Normal. • 1=Slightly abnormal. […] Some difficulty but can complete task. • 3=Moderately abnormal. Unable to do most fine tasks such as putting on lipstick or shaving unless changes strategy such as using two hands or using the less affected hand. 4=Severely abnormal. Cannot complete hygiene tasks independently. 5. Dressing • 0=Normal. • 1=Slightly abnormal. […] Able to do everything but has difficulty due to tremor. • 3=Moderately abnormal. Unable to do most dressing unless changes strategy such as using Velcro, buttoning shirt before putting it on or avoiding shoes with laces. • 4=Severely abnormal. Cannot dress independently. 6. Pouring • 0=Normal. • 1=Slightly abnormal. […] Must be very careful to avoid spilling but may spill occasionally. • 3=Moderately abnormal. Must use two hands or uses other strategies to avoid spilling. • 4=Severely abnormal. Cannot pour. 7. Carrying Food Trays, Plates or Similar Items • 0=Normal. • 1=Slightly abnormal. […] Must be very careful to avoid spilling items on food tray. • 3=Moderately abnormal. Uses strategies such as holding tightly against body to carry. • 4=Severely abnormal. Cannot carry food trays or similar items. 8. Using Keys • 0=Normal. • 1=Slightly abnormal. Tremor is present but can insert key with one hand without difficulty. • 2=Mildly abnormal. Commonly misses target but still routinely puts key in lock with one hand. • 3=Moderately abnormal. Needs to use two hands or other strategies to put key in lock. • 4=Severely abnormal. Cannot put key in lock. 9. Writing • 0=Normal. • 1=Slightly abnormal. […] Difficulty writing due to tremor. • 3=Moderately abnormal. Cannot write without using strategies such as holding the writing hand with the other hand, holding pen differently or using large pen. • 4=Severely abnormal. Cannot write. 10. Working. If Patient is Retired, Ask as if they were Still Working. If the Patient is a Housewife, Ask the Question as it Relates to Housework: • 0=Normal. • 1=Slightly abnormal. […] Tremor interferes with work; able to do everything, but with errors. • 3=Moderately abnormal. Unable to continue working without using strategies such as changing jobs or using special equipment. • 4=Severely abnormal. Cannot perform any job or household work. 11. Overall Disability with the Most Affect Task (Name Task, e.g. Using Computer Mouse, Writing, Etc.) • Task ______ • 0=Normal. • 1=Slightly abnormal. […] Tremor interferes with task but still able to perform task. • 3=Moderately abnormal. Can do task but must use strategies. • 4=Severely abnormal. Cannot do the task. 12.
Analyses of the TETRAS-ADL was conducted using the same type of ANCOVA model as described for the TETRAS-PS, using two-sided tests at the alpha=0.05 level of significance (FIG. 2 and Table 2).

[2] = test system: patients with essential tremor; assay: T-CALM: TETRAS total score; type: in vivo, human
Experimental: The Total TETRAS score was defined as the sum of the TETRAS performance subscale total score and the TETRAS ADL subscale score. TETRAS TOTAL score combines both patient reported outcome and objective measurement of tremor amplitude in a single score. Analyses of the TETRAS-ADL was conducted using the same type of ANCOVA model as described for the TETRAS-PS, using two-sided tests at the alpha=0.05 level of significance (FIG. 3 and Table 3).

[3] = patients Minimally Improved by CGI-I, Day 15
[4] = patients Minimally Improved by CGI-I, Day 28
[5] = patients Minimally Improved by PGIC, Day 15
[6] = patients Minimally Improved by PGIC, Day 28

## CC(C)c1ccc(CC(=O)N[C@H](C)c2ccc(OCC(F)(F)F)cn2)cc1 [CX-8998]
[1]; Day 15
  responders: improvement of at least 5 points by TETRAS-ADL score, %: (46.2%)
[1]; Day 15, N 39
  responders: improvement of at least 5 points by TETRAS-ADL score, number: 18
[1]; Day 15, N = 39
  TETRAS-ADL change from baseline 0 change: subjects, number (%): 2 (5.1%)
  TETRAS-ADL change from baseline >0 to 1 point improvement: subjects, number (%): 5 (12.8%)
  TETRAS-ADL change from baseline >0 to 1 point worsening: subjects, number (%): 1 (2.6%)
  TETRAS-ADL change from baseline >1 to 2.5 point improvement: subjects, number (%): 2 (5.1%)
  TETRAS-ADL change from baseline >1 to 2.5 point worsening: subjects, number (%): 3 (7.7%)
  TETRAS-ADL change from baseline >2.5 to 5 point improvement: subjects, number (%): 7 (17.9%)
  TETRAS-ADL change from baseline >2.5 to 5 point worsening: subjects, number (%): 3 (7.7%)
  TETRAS-ADL change from baseline >5 to 10 point improvement: subjects, number (%): 11 (28.2%)
  TETRAS-ADL change from baseline >5 to 10 point worsening: subjects, number (%): 0
  TETRAS-ADL change from baseline >10 point improvement: subjects, number (%): 5 (12.8%)
  TETRAS-ADL change from baseline >10 point worsening: subjects, number (%): 0
[1]; Day 28
  responders: improvement of at least 5 points by TETRAS-ADL score, %: (29.7%)
[1]; Day 28, N 37
  responders: improvement of at least 5 points by TETRAS-ADL score, number: 11
[1]; Day 28, N = 37
  TETRAS-ADL change from baseline 0 change: subjects, number (%): 5 (13.5%)
  TETRAS-ADL change from baseline >0 to 1 point improvement: subjects, number (%): 2 (5.4%)
  TETRAS-ADL change from baseline >0 to 1 point worsening: subjects, number (%): 3 (8.1%)
  TETRAS-ADL change from baseline >1 to 2.5 point improvement: subjects, number (%): 3 (8.1%)
  TETRAS-ADL change from baseline >1 to 2.5 point worsening: subjects, number (%): 3 (8.1%)
  TETRAS-ADL change from baseline >2.5 to 5 point improvement: subjects, number (%): 7 (18.9%)
  TETRAS-ADL change from baseline >2.5 to 5 point worsening: subjects, number (%): 3 (8.1%)
  TETRAS-ADL change from baseline >5 to 10 point improvement: subjects, number (%): 6 (16.2)
  TETRAS-ADL change from baseline >5 to 10 point worsening: subjects, number (%): 0
  TETRAS-ADL change from baseline >10 point improvement: subjects, number (%): 5 (13.5%)
  TETRAS-ADL change from baseline >10 point worsening: subjects, number (%): 0
[1]; [3]
  TETRAS-ADL score (change from baseline), Mean (SD): −3.7 (4.21)
  TETRAS-ADL score (change from baseline), Median: −2.0
[1]; [4]
  TETRAS-ADL score (change from baseline), Mean (SD): −4.4 (8.10)
  TETRAS-ADL score (change from baseline), Median (minimum, maximum): −1.0 (−24, 3)
[1]; [5]
  TETRAS-ADL score (change from baseline), Mean (SD): −3.3 (4.27)
  TETRAS-ADL score (change from baseline), Median: −4.0
[1]; [6]
  TETRAS-ADL score (change from baseline), Mean (SD): −1.6 (3.84)
  TETRAS-ADL score (change from baseline), Median (minimum, maximum): −1.0 (−7, 3)
[2]; Day 15
  responders: improvement of at least 5 points by TETRAS Total score, %: (56.4%)
[2]; Day 15, N 39
  responders: improvement of at least 5 points by TETRAS Total score, number: 22
[2]; Day 15, N = 39
  TETRAS Total change from baseline 0 change: subjects, number (%): 1 (2.6%)
  TETRAS Total change from baseline >0 to 1 point improvement: subjects, number (%): 2 (5.1%)
  TETRAS Total change from baseline >0 to 1 point worsening: subjects, number (%): 2 (5.1%)
  TETRAS Total change from baseline >1 to 2.5 point improvement: subjects, number (%): 2 (5.1%)
  TETRAS Total change from baseline >1 to 2.5 point worsening: subjects, number (%): 1 (2.6%)
  TETRAS Total change from baseline >2.5 to 5 point improvement: subjects, number (%): 7 (17.9%)
  TETRAS Total change from baseline >2.5 to 5 point worsening: subjects, number (%): 4 (10.3%)
  TETRAS Total change from baseline >5 to 10 point improvement: subjects, number (%): 6 (15.4%)
  TETRAS Total change from baseline >5 to 10 point worsening: subjects, number (%): 0
  TETRAS Total change from baseline >10 to 20 point improvement: subjects, number (%): 12 (30.8%)
  TETRAS Total change from baseline >20 point improvement: subjects, number (%): 2 (5.1%)
  TETRAS Total change from baseline >point worsening: subjects, number (%): 0
[2]; Day 15 and Day 28
  total TETRAS score with TETRAS-PS rated by independent video raters, vs placebo: trended toward improvement for the CX-8998 group but was not statistically significant
[2]; Day 28
  responders: improvement of at least 5 points by TETRAS Total score, %: (56.8%)
[2]; Day 28, N 37
  responders: improvement of at least 5 points by TETRAS Total score, number: 21
[2]; Day 28, N = 37
  TETRAS Total change from baseline 0 change: subjects, number (%): 0
  TETRAS Total change from baseline >0 to 1 point improvement: subjects, number (%): 2 (5.4%)
  TETRAS Total change from baseline >0 to 1 point worsening: subjects, number (%): 4 (10.8%)
  TETRAS Total change from baseline >1 to 2.5 point improvement: subjects, number (%): 2 (5.4%)
  TETRAS Total change from baseline >1 to 2.5 point worsening: subjects, number (%): 2 (5.4%)
  TETRAS Total change from baseline >2.5 to 5 point improvement: subjects, number (%): 5 (13.5%)
  TETRAS Total change from baseline >2.5 to 5 point worsening: subjects, number (%): 1 (2.7%)
  TETRAS Total change from baseline >5 to 10 point improvement: subjects, number (%): 7 (18.9%)
  TETRAS Total change from baseline >5 to 10 point worsening: subjects, number (%): 0
  TETRAS Total change from baseline >10 point worsening: subjects, number (%): 0
  TETRAS Total change from baseline >10 to 20 point improvement: subjects, number (%): 8 (21.6%)
  TETRAS Total change from baseline >20 point improvement: subjects, number (%): 5 (13.5%)
